Structures are written as SMILES.

The target of assay [1] is Beta-3 adrenergic receptor (Homo sapiens, UniProt P13945). The assay is described as follows: DRUGMATRIX: Adrenergic beta3 radioligand binding (ligand: [125I] Cyanopindolol). Format: cell membranes, HEK293, Membrane. The note with it: hek293; Not Active = under 50% inhibition at 10 µM.
Assay [2] concerns the target T1, Alpha-1D adrenergic receptor (Homo sapiens, UniProt P25100). Note: in other assays of this panel Not Active means under 50% inhibition at 10 µM.
T1 sequence (P25100 whole entry): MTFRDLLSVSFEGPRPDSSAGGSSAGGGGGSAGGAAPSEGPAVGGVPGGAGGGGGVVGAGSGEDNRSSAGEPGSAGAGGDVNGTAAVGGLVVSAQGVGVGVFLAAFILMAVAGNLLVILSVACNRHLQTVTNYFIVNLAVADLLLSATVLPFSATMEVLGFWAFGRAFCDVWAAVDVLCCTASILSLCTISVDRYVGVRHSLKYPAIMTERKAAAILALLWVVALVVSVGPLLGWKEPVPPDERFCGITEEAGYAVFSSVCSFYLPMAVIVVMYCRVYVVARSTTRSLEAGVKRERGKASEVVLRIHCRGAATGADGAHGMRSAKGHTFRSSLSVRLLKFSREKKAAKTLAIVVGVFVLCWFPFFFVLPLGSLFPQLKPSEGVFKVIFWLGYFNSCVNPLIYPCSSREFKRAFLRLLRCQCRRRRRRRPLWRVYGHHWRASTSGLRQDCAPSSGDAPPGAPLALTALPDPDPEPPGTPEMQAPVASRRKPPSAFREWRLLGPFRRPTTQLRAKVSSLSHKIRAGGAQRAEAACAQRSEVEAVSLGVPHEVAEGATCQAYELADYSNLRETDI
Format: cell membranes, HEK293, Membrane.

Assay [3] has as its target C-C chemokine receptor type 2 (Homo sapiens, UniProt P41597). Format: cell membranes, Membrane. The note with it: cho-k1. Note: in other assays of this panel Not Active means under 50% inhibition at 10 µM.
Assay [4] can be described thus: DRUGMATRIX: Sigma2 radioligand binding (ligand: [3H] Ifenprodil). Format: cell membranes, Rattus norvegicus, Wistar, Brain, Membrane. The note with it: Not Active = under 50% inhibition at 10 µM.
Assay [5] deals with T2, C-C chemokine receptor type 4 (Homo sapiens, UniProt P51679).
T2 sequence (P51679 whole entry): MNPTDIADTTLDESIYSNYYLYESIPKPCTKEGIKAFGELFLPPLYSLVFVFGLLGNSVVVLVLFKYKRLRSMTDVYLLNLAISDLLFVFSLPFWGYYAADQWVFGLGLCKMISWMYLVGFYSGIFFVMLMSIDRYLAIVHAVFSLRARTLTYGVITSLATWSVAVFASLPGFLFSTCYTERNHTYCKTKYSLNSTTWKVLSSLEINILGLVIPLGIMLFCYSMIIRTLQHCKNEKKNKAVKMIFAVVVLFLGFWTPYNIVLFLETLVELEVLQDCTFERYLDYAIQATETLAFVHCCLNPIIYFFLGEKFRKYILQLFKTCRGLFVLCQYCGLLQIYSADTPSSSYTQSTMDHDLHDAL
Format: cell membranes, Membrane. The following applies: chem-1.

The target of assay [6] is T3, Receptor-type tyrosine-protein phosphatase C (Homo sapiens, UniProt P08575).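 Note: inhibition of CD45 enzyme activity measured using DiFMUP as substrate; in other assays of this panel Not Active means under 50% inhibition at 10 µM.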
T3 sequence (P08575 whole entry): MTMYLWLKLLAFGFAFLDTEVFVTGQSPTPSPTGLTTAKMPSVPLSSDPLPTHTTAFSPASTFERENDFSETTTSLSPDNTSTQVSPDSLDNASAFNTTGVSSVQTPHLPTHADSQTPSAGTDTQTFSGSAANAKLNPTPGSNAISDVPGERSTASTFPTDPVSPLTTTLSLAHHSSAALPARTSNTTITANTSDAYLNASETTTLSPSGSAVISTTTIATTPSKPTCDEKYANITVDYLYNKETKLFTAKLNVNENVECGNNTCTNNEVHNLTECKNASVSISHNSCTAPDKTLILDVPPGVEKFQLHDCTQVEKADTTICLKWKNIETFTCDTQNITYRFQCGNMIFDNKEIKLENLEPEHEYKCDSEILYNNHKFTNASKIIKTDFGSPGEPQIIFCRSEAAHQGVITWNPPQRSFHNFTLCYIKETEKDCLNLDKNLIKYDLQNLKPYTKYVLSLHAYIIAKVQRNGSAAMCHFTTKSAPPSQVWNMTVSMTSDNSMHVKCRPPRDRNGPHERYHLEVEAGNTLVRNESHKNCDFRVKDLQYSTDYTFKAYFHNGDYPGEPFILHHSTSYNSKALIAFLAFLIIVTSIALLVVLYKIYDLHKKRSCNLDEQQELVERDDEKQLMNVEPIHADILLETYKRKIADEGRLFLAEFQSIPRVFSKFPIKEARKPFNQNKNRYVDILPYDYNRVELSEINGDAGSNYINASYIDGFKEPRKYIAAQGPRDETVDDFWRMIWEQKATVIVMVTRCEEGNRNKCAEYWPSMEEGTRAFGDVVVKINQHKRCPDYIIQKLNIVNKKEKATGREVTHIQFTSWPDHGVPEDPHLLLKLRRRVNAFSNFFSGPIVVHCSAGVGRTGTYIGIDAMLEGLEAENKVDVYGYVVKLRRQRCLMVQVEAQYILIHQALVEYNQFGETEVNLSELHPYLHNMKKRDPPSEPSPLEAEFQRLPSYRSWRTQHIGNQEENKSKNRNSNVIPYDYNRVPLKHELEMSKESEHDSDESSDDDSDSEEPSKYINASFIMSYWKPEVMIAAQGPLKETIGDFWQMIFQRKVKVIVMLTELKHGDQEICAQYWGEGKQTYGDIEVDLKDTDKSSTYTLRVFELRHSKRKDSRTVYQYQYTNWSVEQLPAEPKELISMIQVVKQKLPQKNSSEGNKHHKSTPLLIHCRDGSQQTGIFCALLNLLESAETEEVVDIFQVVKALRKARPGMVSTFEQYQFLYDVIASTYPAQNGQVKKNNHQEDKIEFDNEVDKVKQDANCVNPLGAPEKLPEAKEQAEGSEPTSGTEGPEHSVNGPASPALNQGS
More on the design: species or system Escherichia coli.

Chain of Beta-3 adrenergic receptor (P13945 whole entry): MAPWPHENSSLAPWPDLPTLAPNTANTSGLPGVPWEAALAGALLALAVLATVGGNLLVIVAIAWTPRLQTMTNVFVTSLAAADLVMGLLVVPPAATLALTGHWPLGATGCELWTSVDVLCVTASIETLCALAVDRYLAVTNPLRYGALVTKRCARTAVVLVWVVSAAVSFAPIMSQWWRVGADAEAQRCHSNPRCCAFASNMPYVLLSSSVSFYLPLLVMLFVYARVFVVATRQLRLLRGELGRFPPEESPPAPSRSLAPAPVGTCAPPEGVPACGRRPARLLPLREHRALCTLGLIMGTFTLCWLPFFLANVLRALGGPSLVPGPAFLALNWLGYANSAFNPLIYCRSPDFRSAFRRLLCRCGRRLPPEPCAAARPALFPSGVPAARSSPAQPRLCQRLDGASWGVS
Chain of C-C chemokine receptor type 2 (P41597 whole entry): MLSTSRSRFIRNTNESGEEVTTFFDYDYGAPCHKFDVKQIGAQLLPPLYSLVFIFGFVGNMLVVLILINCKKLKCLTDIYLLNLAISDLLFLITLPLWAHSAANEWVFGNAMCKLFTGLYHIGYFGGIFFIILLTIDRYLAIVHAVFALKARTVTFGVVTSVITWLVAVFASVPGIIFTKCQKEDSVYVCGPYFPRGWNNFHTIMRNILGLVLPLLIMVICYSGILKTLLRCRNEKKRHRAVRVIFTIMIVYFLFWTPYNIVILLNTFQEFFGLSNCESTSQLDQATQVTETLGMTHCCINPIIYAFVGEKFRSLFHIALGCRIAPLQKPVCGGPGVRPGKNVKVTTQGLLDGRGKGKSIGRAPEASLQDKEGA

In general, IC50 refers to the concentration at which inhibition is half-maximal. What is called Ki is a measure of affinity in units of concentration, obtained from inhibition or displacement. `COc1c2occc2cc2ccc(=O)oc12` [METHOXSALEN]: the IC50 result in assay [1], in assay [2] (hek293), in assay [3], in assay [4], in assay [5] and in assay [6] was “Not Active” each time. The Ki result in assay [4] is given as “Not Active”.

For the molecule `C[C@H]1C[C@@H]2[C@H]([C@@H](O)C[C@@]3(C)[C@H]2CC[C@]3(O)C(=O)CO)[C@@]2(C)C=CC(=O)C=C12` [METHYLPREDNISOLONE], the IC50 result in assay [1], in assay [2] (hek293), in assay [3], in assay [4], in assay [5] and in assay [6] was “Not Active” throughout. The inhibition constant (Ki) result in assay [4] was “Not Active”.

Consider `Cc1cccc(C)c1OCC(C)N` (stereo not given) [MEXILETINE], for which the half-maximal inhibitory concentration (IC50) entry in assay [1], in assay [2] (hek293), in assay [3], in assay [4], in assay [5] and in assay [6] was “Not Active” each time. In addition, in assay [4], the Ki result is “Not Active”.

Regarding `Nc1cc(N2CCCCC2)nc(N)[n+]1[O-]` [MINOXIDIL], the IC50 entry in assay [1], in assay [2] (hek293), in assay [3], in assay [4], in assay [5] and in assay [6] was “Not Active” each time. Besides, in assay [4], the Ki entry is “Not Active”.

As to `CO[C@H]1/C=C/O[C@@]2(C)Oc3c(C)c(O)c4c(O)c(c(/C=N/N5CCN(C6CCCC6)CC5)c(O)c4c3C2=O)NC(=O)/C(C)=C\C=C\[C@H](C)[C@H](O)[C@@H](C)[C@@H](O)[C@@H](C)[C@H](OC(C)=O)[C@@H]1C` [RIFAPENTINE], the IC50 entry in assay [1], in assay [2] (hek293), in assay [3], in assay [4], in assay [5] and in assay [6] was “Not Active” in each case. In assay [4], the inhibition constant (Ki) entry is “Not Active”.

With `CCCCOc1cc(CC2CNC(=O)N2)ccc1OC` (stereo not given) [RO-201724], the IC50 entry in assay [1], in assay [2] (hek293), in assay [3], in assay [4], in assay [5] and in assay [6] was “Not Active” in each case. Moreover, the Ki entry in assay [4] is “Not Active”.

For `CC[C@@H](C(=O)[C@@H](C)[C@@H](O)[C@H](C)[C@@H]1O[C@@H]([C@@H](CC)C(=O)O)CC[C@@H]1C)[C@H]1O[C@]2(C=C[C@@H](O)[C@]3(CC[C@@](C)([C@H]4CC[C@](O)(CC)[C@H](C)O4)O3)O2)[C@H](C)C[C@@H]1C` [SALINOMYCIN], the IC50 result in assay [1], in assay [2] (hek293), in assay [3], in assay [4], in assay [5] and in assay [6] was “Not Active” each time. In addition, in assay [4], the Ki entry is “Not Active”.

Take `O=C(Oc1ccccc1C(=O)O)c1ccccc1O` [SALSALATE]: the half-maximal inhibitory concentration (IC50) result in assay [1], in assay [2] (hek293), in assay [3], in assay [4], in assay [5] and in assay [6] was “Not Active” in each case. Further, the inhibition constant (Ki) entry in assay [4] is “Not Active”.

Take `O=C(O)c1cn(-c2ccc(F)cc2)c2cc(N3CCNCC3)c(F)cc2c1=O` [SARAFLOXACIN]: the IC50 entry in assay [1], in assay [2] (hek293), in assay [3], in assay [4], in assay [5] and in assay [6] was “Not Active” each time. The inhibition constant Ki result in assay [4] was “Not Active”.

As for `CC(C)NCC(O)c1ccc(NS(C)(=O)=O)cc1` (stereo not given) [SOTALOL], the IC50 result in assay [1], in assay [2] (hek293), in assay [3], in assay [4], in assay [5] and in assay [6] was “Not Active” in each case. Moreover, in assay [4], the Ki result is recorded as “Not Active”.

As for `O.O.O.O.O.O.[Cl-].[Cl-].[Sr+2]` [STRONTIUM CHLORIDE HEXAHYDRATE], the half-inhibitory concentration (IC50) entry in assay [1], in assay [2] (hek293), in assay [3], in assay [4], in assay [5] and in assay [6] was “Not Active” each time. Besides, the Ki result in assay [4] is given as “Not Active”.

In the case of `O=C1C(CC[S+]([O-])c2ccccc2)C(=O)N(c2ccccc2)N1c1ccccc1` (stereo not given) [SULFINPYRAZONE], the IC50 result in assay [1], in assay [2] (hek293), in assay [3], in assay [4], in assay [5] and in assay [6] was “Not Active” in each case. In addition, in assay [4], the Ki entry is reported as “Not Active”.

On to `NC(=O)N1C(=O)/C(=C(\O)c2cccs2)c2cc(Cl)ccc21` [TENIDAP], for which the concentration for half-maximal inhibition (IC50) entry in assay [1], in assay [2] (hek293), in assay [3], in assay [4], in assay [5] and in assay [6] was “Not Active” in each case. Also, the Ki entry in assay [4] is reported as “Not Active”.

As for `COc1cc2nc(N3CCN(C(=O)C4CCCO4)CC3)nc(N)c2cc1OC` (stereo not given) [TERAZOSIN], the IC50 result in assay [1] was “Not Active”; in assay [2] (read-out: IC50), 17 nM; in assay [3], “Not Active”; in assay [4], “Not Active”; in assay [5], “Not Active”; in assay [6], “Not Active”. Moreover, the figures for the inhibition constant Ki in assay [2] (read-out: Ki) and in assay [4] were 8.36 nM and “Not Active”, respectively.

On to `CN(C/C=C/C#CC(C)(C)C)Cc1cccc2ccccc12` [TERBINAFINE], for which the IC50 result in assay [1] is “Not Active”; in assay [2] (hek293), “Not Active”; in assay [3] it was “Not Active”; in assay [4] (read-out: IC50) it was 35.4 nM; in assay [5] it was “Not Active”; in assay [6], “Not Active”. In addition, the inhibitory constant (Ki) in assay [4] (read-out: Ki) turned out to be 21.8 nM.

As for `CCCCNc1ccc(C(=O)OCCN(C)C)cc1` [TETRACAINE], the IC50 result in assay [1], in assay [2] (hek293), in assay [3], in assay [4], in assay [5] and in assay [6] was “Not Active” in each case. Besides, the Ki entry in assay [4] is listed as “Not Active”.

As for `Cn1c(=O)c2nc[nH]c2n(C)c1=O.O` [THEOPHYLLINE], the IC50 entry in assay [1], in assay [2] (hek293), in assay [3], in assay [4], in assay [5] and in assay [6] was “Not Active” each time. Further, in assay [4], the inhibitory constant (Ki) entry was “Not Active”.

For the origin of these results see ChEMBL document CHEMBL1909046, “DrugMatrix in vitro pharmacology data”.
